Counter-ions that a name gives are not always drawn. Like-named read-outs stand apart in the source and are kept apart here.
Legend:
[1] = system: noradrenaline induced contraction of urethra; assay: Effects on urethral contractions (noradrenaline-induced) in anaesthetized dogs; assay type: in vivo; conditions: for ED50: Canis lupus familiaris, iv, anaesthetized male beagle dogs, i.v. cumulative, active dose in inhibiting by 50% the noradrenaline induced contraction of urethra, read-out: Urethra ED50; for DBP/Urethra ratio: ratio between the active doses (selectivity index), * = non-selective: substantial effect on both urethra and DBP
Source text: (§1) In order to monitor systemic blood pressure (BP), a PE catheter was introduced into the aortic arch through the right common carotid artery.
(§2) A collateral of the left femoral vein was cannulated for infusion of anaesthetic, and the right femoral vein was cannulated for administration of drugs. For intrarterial (i.a.) injection of noradrenaline (NA), a PE catheter was introduced into the lower portion of abdominal aorta via the right external iliac artery. Through such procedure, NA was selectively distributed to the lower urinary tract. Via a midline laparotomy, the urinary bladder and proximal urethra were exposed. In order to prevent the filling of the bladder, the two ureters were cannulated and the urine led outside. In order to record the prostatic urethral pressure, a Mikro-tip catheter (6 F) was introduced into the bladder via the external urethral meatus, and withdrawn until the pressure transducer was positioned in the prostatic urethra. A ligature was secured between the neck of the bladder and urethra to isolate the response of the latter and avoid any interaction with the bladder. Another ligature was put around the Mikro-tip catheter at the external urethral meatus, to secure the catheter itself. After a stabilizing period following surgical procedure (30 min), in which arterial and prostatic urethral pressure were continuously monitored as basal values, i.a. administration of NA was made at intervals of 10 min. The dose of NA chosen was such to produce an increase of at least 100% in urethral pressure. The test compounds were administered i.v. in a cumulative manner with intervals of 15-20 min between administrations. I.a. injections of NA were repeated approximately 5 min. after every dosing of test compound. Dose response curves were constructed computing the percentage inhibition to the increase in urethral pressure (NA induced), and the percentage drop in blood pressure produced by the test compound.

5HT1A receptors = molecular target: T1, 5HT1A receptors (Rattus norvegicus, UniProt P19327); assay: [3H]8-OH-DPAT binding (5HT1A receptors), rat hippocampus membranes; conditions: rat hippocampus crude membranes, [3H]8-OH-DPAT 1.0 nM, 25°C 30 min; read-out: Receptor Binding IC50 (nM) 5-HT1a
T1 construct: Rat hippocampi were homogenized; from tissue; host or cells: rat hippocampus membranes
T1 sequence (P19327 1-422): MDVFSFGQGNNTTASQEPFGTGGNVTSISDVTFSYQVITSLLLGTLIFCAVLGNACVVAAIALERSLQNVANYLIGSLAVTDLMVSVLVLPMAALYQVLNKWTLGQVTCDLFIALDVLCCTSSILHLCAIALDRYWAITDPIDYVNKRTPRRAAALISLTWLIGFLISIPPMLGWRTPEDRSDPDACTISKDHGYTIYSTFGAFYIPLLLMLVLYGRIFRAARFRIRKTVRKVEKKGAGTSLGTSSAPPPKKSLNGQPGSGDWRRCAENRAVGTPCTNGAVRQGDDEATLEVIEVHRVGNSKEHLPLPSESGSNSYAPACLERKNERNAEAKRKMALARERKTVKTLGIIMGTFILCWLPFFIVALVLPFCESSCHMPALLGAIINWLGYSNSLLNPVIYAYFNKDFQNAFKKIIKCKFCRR
Method: Rat hippocampi were homogenized in 50 volumes of original wet weight of ice-cold 50 mM Tris-HCl buffer pH 7.4. The homogenates were centrifuged at 48,000 x g for 10 minutes, and the pellets were resuspended in the same volume of ice-cold buffer, incubated for 10 minutes at 37°C, centrifuged and resuspended two more times. The final pellets obtained were resuspended in the same volume of buffer and incubated according to the conditions reported in the table below.
(§3) The incubations were terminated after the appropriate time (see table) by rapid filtration through Whatman GF/B filters using a Brandel cell harvester. The filters were washed twice with 15 ml of ice-cold buffer (see table). The radioactivity retained on the filters was determined by liquid scintillation counting. Nonspecific binding (which amounted generally to 10-30%) was evaluated by adding high concentrations of the specific displacers (see table). All the compounds were initially tested at 1x10⁻⁶ M concentration, and in the presence of significant displacing activity, a complete competition curve was generated (down to a concentration of 10⁻¹¹ M). All the samples were run in triplicate.
The competition curves were always analyzed (to evaluate the IC₅₀ values) by non linear curve fitting of the logistic equation according to the method reported by De Lean et al. (Am. J. Physiol., 235, E97, 1978), utilizing the ALLFIT program [publically available from the National Institutes of Health (N.I.H.) Bethesda, Maryland, USA] written for the IBM PC.

rat bladder strips = assay: K+-induced contractions of rat bladder strips; assay type: cell-based; conditions: 80 mM KCl, drug added 30 minutes before
Method: The whole bladder of the rat was removed and immediately placed in Krebs solution warmed at 37°C. […] Each strip was placed in a 10 ml organ bath and connected, under a constant load of 1 g, to an isometric strain gauge (DY-1 Basile, Comerio, Varese, Italy). […] After a 60 minutes equilibration period the strips were exposed to 80 mM KCl (final concentration). […] When the tonic contraction was stable, the strips were washed and 30 minutes later a new contraction was induced. After having recorded two or more reproducible responses, one concentration of the tested drugs was added to the bath and 30 minutes later a new contraction was induced. The experimental groups consisted of at least two preparations taken from different animals for each concentration of drug tested. The IC₅₀ values of inhibition of agonist-induced contractions were evaluated by linear regression analysis.

α₁ receptors = assay: [3H]prazosin binding (α1 receptors), rat cerebral cortex membranes; conditions: rat cerebral cortex crude membranes, [3H]prazosin 0.35 nM, 25°C 30 min; read-out: Receptor Binding IC50 (nM) α1
Method: Rat cerebral cortices were homogenized in 50 volumes of original wet weight of ice-cold 50 mM Tris-HCl buffer pH 7.4. The homogenates were centrifuged at 48,000 x g for 10 minutes, and the pellets were resuspended in the same volume of ice-cold buffer, centrifuged and resuspended two more times. The final pellets obtained were resuspended in the same volume of buffer and incubated according to the conditions reported in the table below.
as §3

[2] = Acute toxicity in mice after intraperitoneal and oral administration; conditions: mouse, in vivo, female albino Swiss mice, mortality recorded 7 days after administration
In short: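 Female albino Swiss mice (20-30 g) dosed i.p. or orally at four log-scaled doses in 0.5% Methocel (10 ml/kg), 4 mice/dose. Mortality recorded at 7 days; LD₅₀ with fiducial limits by Weil's method.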

diastolic blood pressure = assay: Effects on blood pressure in anaesthetized dogs; assay type: in vivo; conditions: Canis lupus familiaris, iv; anaesthetized male beagle dogs, i.v. cumulative; active dose in lowering diastolic blood pressure by 25%; read-out: DBP ED25
Source text: as §1, §2

[3] = phasic contraction, read-out: K+ Stimulation of Rat Bladder IC50 (μM) Contractions Phasic
[4] = tonic contraction, read-out: K+ Stimulation of Rat Bladder IC50 (μM) Contractions Tonic
[5] = ip, intraperitoneal, read-out: Acute Toxicity in Mice LD50 (mg/kg) i.p.
[6] = oral, read-out: Acute Toxicity in Mice LD50 (mg/kg) p.o.

| SMILES | ED50 [1] [mg/kg] | DBP/Urethra ratio [1] | IC50 (5HT1A receptors) [nM] | IC50 (rat bladder strips; [3]) [µM] | IC50 (rat bladder strips; [4]) [µM] | IC50 (α₁ receptors) [nM] | LD50 at 168 h [2, 5] [mg/kg] | LD50 at 168 h [2, 6] [mg/kg] | ED25 (diastolic blood pressure) [mg/kg] |
| --- | --- | --- | --- | --- | --- | --- | --- | --- | --- |
| COc1ccccc1N1CCN(CCCNC(=O)c2cccc3c(=O)c(C)c(-c4ccccc4)oc23)CC1 [Example 11, 8-{3-[4-(2-methoxyphenyl)-1-piperazinyl]-propylcarbamoyl}-3-methyl-4-oxo-2-phenyl-4H-1-benzopyran dihydrochloride hemihydrate] | 0.0014 | 278.6 | 9 | 2.9 | 3 | 29 | 247 | 297 | 0.39 |
| COc1ccccc1N1CCN(CCNC(=O)c2cccc3c(=O)c(C)c(-c4ccccc4)oc23)CC1 [Example 13, 8-{2-[4-(2-methoxyphenyl)-1-piperazinyl]-ethylcarbamoyl}-3-methyl-4-oxo-2-phenyl-4H-1-benzopyran monohydrochloride hemihydrate] | 0.016 | 13.4 | 229 | 10 | 10 | 68 | > 1000 | > 3000 | 0.215 |
| COc1ccccc1N1CCN(CC(O)c2cccc3c(=O)c(C)c(-c4ccccc4)oc23)CC1.Cl (stereo not drawn) [Example 17, 8-{1-hydroxy-2-[4-(2-methoxyphenyl)-1-piperazinyl]-ethyl}-3-methyl-4-oxo-2-phenyl-4H-1-benzopyran hydrochloride] | 0.01 | 0.6* | 910 | 8.8 | 3.8 | 59 | 299 | 608 | 0.0062 |
| COc1ccccc1N1CCN(CCOCc2cccc3c(=O)c(C)c(-c4ccccc4)oc23)CC1.Cl.Cl [Example 27, 8-{2-[4-(2-methoxyphenyl)-1-piperazinyl]-ethoxymethyl}-3-methyl-4-oxo-2-phenyl-4H-1-benzopyran dihydrochloride] | 0.0032 | 3.1* | 124 | 1 | 0.8 | 23 | 399 | > 3000 | 0.0098 |
| COc1ccccc1N1CCN(CCCOc2cccc3c(=O)c(C)c(-c4ccccc4)oc23)CC1.Cl.Cl [Example 40, 8-{3-[4-(2-methoxyphenyl)-1-piperazinyl]-propoxy}-3-methyl-4-oxo-2-phenyl-4H-1-benzopyran dihydrochloride] | 0.011 | 13.8 | 83 | 0.5 | 0.9 | 75 | 140 | 349 | 0.152 |
| COc1ccccc1N1CCN(CCCCCOc2cccc3c(=O)c(C)c(-c4ccccc4)oc23)CC1.Cl [Example 42, 8-{5-[4-(2-methoxyphenyl)-1-piperazinyl]-pentyloxy}-3-methyl-4-oxo-2-phenyl-4H-1-benzopyran hydrochloride] | 0.031 | 13.0 | 39 | 10 | 10 | 111 | 459 | 2160 | 0.404 |
| COc1ccccc1N1CCN(CCCS(=O)(=O)c2cccc3c(=O)c(C)c(-c4ccccc4)oc23)CC1.Cl [Example 47, 8-{3-[4-(2-methoxyphenyl)-1-piperazinyl]-propylsulphonyl}-3-methyl-4-oxo-2-phenyl-4H-1-benzopyran hydrochloride] | 0.035 | 15.1 | 23 | 2.7 | 5.2 | 36 | 330 | 1050 | 0.53 |

— patent publication EP0558245A1, “Heterobicyclic compounds as antagogists of alpha-1 adrenergic and SHT1A receptors” (priority 1992, dated 1993)
